Data reported in ChEMBL document CHEMBL1287810, “Diamino-1,2,4-triazole derivatives are selective inhibitors of TYK2 and JAK1 over JAK2 and JAK3” (Bioorg Med Chem Lett, 2010).

Tests used:
[1] = target: Non-receptor tyrosine-protein kinase TYK2 (Homo sapiens, UniProt P29597)
[2] = target: T1, Tyrosine-protein kinase JAK3 (Homo sapiens, UniProt P52333)
T1 sequence (P52333 whole entry): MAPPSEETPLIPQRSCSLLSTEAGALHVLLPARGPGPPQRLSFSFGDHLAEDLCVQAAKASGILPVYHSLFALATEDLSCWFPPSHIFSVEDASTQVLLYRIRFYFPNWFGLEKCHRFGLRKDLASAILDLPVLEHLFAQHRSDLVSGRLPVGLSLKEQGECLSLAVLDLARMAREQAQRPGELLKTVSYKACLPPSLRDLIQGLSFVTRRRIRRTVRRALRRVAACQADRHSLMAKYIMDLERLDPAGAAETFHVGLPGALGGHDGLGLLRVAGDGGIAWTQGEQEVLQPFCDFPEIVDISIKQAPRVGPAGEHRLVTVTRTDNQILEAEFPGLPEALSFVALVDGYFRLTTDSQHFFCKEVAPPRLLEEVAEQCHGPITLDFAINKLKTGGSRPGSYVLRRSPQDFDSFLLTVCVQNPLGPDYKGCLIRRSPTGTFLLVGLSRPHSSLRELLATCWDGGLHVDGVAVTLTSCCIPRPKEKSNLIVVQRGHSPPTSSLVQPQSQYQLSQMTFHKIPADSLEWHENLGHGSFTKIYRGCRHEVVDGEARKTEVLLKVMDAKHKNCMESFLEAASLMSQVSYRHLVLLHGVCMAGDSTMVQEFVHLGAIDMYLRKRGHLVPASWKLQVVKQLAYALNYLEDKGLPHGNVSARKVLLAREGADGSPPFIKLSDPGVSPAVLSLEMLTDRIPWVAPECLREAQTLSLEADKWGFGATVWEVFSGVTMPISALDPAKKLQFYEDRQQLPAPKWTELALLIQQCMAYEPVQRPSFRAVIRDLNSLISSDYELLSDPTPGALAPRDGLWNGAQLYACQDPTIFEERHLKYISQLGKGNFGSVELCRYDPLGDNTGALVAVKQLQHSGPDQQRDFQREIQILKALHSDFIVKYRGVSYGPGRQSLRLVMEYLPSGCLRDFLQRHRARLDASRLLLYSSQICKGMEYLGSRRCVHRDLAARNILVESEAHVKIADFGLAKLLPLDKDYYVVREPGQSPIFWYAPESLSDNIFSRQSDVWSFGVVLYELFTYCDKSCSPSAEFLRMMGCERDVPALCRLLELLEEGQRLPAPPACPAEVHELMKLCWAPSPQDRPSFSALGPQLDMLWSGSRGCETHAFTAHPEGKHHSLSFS

[3] = target: Tyrosine-protein kinase JAK2 (Homo sapiens, UniProt O60674)
[4] = target: Tyrosine-protein kinase JAK1 (Homo sapiens, UniProt P23458)
Chain of Tyrosine-protein kinase JAK1 (P23458 whole entry): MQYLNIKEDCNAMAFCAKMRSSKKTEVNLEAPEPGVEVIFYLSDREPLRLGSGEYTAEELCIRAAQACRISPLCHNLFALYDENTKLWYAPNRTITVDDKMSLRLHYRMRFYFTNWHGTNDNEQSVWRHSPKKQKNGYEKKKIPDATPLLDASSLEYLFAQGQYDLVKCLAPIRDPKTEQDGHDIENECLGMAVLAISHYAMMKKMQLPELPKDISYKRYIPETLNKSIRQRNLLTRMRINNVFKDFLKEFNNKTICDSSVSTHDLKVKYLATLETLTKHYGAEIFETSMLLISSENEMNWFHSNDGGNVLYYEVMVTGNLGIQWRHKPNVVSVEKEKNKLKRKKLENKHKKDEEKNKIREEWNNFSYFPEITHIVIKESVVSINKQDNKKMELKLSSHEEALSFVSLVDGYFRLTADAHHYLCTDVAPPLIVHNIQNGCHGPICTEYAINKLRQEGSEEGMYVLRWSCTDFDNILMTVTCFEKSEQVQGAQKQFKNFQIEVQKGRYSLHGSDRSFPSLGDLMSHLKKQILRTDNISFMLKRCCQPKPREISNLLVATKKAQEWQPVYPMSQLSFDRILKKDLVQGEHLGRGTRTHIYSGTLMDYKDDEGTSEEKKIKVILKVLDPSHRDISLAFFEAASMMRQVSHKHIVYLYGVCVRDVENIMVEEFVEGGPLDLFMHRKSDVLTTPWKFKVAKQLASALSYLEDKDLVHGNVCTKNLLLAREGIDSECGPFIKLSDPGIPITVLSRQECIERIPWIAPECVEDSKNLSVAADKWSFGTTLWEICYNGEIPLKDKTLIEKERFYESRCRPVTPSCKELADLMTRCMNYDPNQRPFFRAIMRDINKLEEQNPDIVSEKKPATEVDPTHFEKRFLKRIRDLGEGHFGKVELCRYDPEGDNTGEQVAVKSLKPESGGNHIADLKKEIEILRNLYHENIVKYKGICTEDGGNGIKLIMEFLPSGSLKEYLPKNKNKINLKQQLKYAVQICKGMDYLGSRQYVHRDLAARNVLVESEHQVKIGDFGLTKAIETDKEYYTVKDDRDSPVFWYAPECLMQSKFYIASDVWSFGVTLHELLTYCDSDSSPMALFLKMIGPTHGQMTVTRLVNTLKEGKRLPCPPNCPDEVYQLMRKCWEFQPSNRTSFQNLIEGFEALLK

Chain of Tyrosine-protein kinase JAK2 (O60674 whole entry): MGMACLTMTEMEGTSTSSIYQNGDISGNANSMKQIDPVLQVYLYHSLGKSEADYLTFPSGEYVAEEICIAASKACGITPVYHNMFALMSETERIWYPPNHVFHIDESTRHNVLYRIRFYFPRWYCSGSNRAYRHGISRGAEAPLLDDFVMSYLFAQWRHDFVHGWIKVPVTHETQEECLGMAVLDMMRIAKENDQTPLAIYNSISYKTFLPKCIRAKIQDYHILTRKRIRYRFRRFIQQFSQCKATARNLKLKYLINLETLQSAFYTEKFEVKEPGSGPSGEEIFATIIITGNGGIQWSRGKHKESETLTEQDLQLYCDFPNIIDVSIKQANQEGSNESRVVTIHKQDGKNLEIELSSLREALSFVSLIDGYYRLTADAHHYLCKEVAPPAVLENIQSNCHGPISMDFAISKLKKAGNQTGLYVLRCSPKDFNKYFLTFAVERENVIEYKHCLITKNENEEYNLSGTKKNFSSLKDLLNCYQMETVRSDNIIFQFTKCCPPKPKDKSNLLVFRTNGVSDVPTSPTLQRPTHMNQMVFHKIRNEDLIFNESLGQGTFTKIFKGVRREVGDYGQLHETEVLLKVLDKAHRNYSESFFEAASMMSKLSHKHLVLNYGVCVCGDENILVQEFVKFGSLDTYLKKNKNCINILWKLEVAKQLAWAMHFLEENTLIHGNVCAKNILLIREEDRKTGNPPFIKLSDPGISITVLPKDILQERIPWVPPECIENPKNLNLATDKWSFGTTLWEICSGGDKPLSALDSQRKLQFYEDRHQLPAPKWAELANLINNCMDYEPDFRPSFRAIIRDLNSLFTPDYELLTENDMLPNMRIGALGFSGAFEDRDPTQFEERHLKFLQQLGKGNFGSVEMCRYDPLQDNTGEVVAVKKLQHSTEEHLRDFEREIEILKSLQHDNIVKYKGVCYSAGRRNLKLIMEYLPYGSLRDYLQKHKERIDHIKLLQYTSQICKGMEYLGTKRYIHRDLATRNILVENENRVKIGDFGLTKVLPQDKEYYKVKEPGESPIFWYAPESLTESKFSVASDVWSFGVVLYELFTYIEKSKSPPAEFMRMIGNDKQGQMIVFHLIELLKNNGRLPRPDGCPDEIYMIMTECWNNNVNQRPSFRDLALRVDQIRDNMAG
Chain of Non-receptor tyrosine-protein kinase TYK2 (P29597 whole entry): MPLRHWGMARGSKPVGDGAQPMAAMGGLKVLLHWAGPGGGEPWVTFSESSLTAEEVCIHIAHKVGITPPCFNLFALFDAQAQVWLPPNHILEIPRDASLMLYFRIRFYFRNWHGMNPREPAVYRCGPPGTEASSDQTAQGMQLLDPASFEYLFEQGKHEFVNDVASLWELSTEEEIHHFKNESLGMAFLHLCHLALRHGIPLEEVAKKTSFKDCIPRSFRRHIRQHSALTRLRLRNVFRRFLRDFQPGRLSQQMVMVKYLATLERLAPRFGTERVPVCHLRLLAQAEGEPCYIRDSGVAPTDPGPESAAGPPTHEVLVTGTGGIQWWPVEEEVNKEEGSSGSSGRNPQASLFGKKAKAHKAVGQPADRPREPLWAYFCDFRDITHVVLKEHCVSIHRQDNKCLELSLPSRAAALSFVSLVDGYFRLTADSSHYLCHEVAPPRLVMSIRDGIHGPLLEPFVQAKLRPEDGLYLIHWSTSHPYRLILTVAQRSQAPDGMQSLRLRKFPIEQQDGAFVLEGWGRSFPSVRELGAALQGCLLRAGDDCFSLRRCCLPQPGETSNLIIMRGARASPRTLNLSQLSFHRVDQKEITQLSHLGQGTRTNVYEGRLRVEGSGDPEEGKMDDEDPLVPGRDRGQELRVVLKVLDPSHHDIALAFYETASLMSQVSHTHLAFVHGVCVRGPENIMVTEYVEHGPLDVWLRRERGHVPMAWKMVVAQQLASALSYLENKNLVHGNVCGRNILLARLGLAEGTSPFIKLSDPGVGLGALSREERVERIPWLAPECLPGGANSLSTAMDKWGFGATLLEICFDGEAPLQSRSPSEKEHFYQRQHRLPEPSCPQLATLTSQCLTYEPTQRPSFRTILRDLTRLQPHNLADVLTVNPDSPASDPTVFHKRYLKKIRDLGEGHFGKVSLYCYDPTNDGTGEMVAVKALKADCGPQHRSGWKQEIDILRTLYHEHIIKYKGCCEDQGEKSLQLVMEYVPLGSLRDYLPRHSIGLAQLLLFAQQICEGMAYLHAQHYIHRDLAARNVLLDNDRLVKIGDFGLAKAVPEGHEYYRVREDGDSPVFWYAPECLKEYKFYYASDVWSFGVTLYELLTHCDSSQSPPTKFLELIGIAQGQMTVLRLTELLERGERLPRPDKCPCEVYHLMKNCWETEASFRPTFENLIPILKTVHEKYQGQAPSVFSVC

| Compound | IC50 [1] [nM] | IC50 [2] [nM] | IC50 [3] [nM] | IC50 [4] [nM] |
| --- | --- | --- | --- | --- |
| CCOC(=O)c1cccc(Nc2nc(N)n(C(=O)c3ccc(C(F)(F)F)cc3)n2)c1 | > 10000 |  |  |  |
| CCOC(=O)c1cccc(Nc2nc(N)nn2C(=O)c2c(F)cccc2F)c1 | > 10000 |  |  |  |
| CCOC(=O)c1cccc(Nc2nc(N)n(C(=O)c3ccccc3)n2)c1 | > 10000 |  |  |  |
| CCOC(=O)c1cccc(Nc2nnc(N)[nH]2)c1 | > 10000 |  |  |  |
| CCOC(=O)c1cccc(Nc2nc(N)n(C(=O)c3c(F)cccc3F)n2)c1 | 1720 | > 10000 | > 10000 | 990 |
| COC(=O)c1ccc(Nc2nc(N)n(C(=O)c3c(F)cccc3F)n2)cc1 | 760 | > 10000 | > 10000 | 500 |
| Nc1nc(Nc2ccccc2)nn1C(=O)c1c(F)cccc1F | 360 | 3250 | ≥ 10000 | 230 |
| CCOC(=O)c1cccc(Nc2nc(N)n(C(=O)c3ccco3)n2)c1 | > 10000 |  |  |  |
| CCOC(=O)c1cccc(Nc2nc(N)n(C(=O)c3ccccc3F)n2)c1 | 6040 | > 10000 | > 10000 | ≥ 10000 |
| CCOC(=O)c1cccc(Nc2nc(N)n(C(=O)c3ccc(N(C)C)cc3)n2)c1 | > 10000 |  |  |  |
| Nc1nc(Nc2cccc(C(=O)O)c2)nn1C(=O)c1c(F)cccc1F | 690 | > 10000 | > 10000 | 610 |

The next compounds have a lower IC50 [1] than those just listed; values first:

| IC50 [1] [nM] | IC50 [2] [nM] | IC50 [3] [nM] | IC50 [4] [nM] | Compound |
| --- | --- | --- | --- | --- |
| 300 | 5000 | > 10000 | 160 | Nc1nc(Nc2cccnc2)nn1C(=O)c1c(F)cccc1F |
| 70 | 850 | 2500 | 80 | CN(C)c1ccc(Nc2nc(N)n(C(=O)c3c(F)cccc3F)n2)cc1 |
| 70 | 2000 | 5000 | 39 | CN(C)c1cccc(Nc2nc(N)n(C(=O)c3c(F)cccc3F)n2)c1 |
| 70 | 1250 | 2500 | 19 | Nc1nc(Nc2cccc(S(N)(=O)=O)c2)nn1C(=O)c1c(F)cccc1F |
| 42 | 1470 | 2110 | 45 | Nc1nc(Nc2ccc(C(=O)O)cc2)nn1C(=O)c1c(F)cccc1F |
